Results from article PMC4584933, “Establishing the pig as a large animal model for vaccine development against human cancer” (Frontiers in Genetics, 2015).

Experiments:
[1] = system: SLA-2*04:01; test: Peptide-MHC class I complex stability, scintillation proximity assay (SPA); set-up: species or system pig; settings: biotinylated recombinant SLA heavy chain, 125I-β2m, excess unlabeled β2m, read every 40 min, number only if t1/2 ≥ 0.5 h, '-' = not stably binding
Description: (§1) The stability of the selected 198 peptides in complex with relevant SLA class I molecules and β2m was determined using a scintillation proximity assay (SPA), as previously described (Harndahl et al., [2011]). Briefly, biotinylated recombinant MHC class I heavy chains were attached to a streptavidin-coated scintillation microplate together with iodinated (^125I) β2m and candidate peptide resulting in a scintillation signal, which was consecutively measured every 40 min by a scintillation plate counter. The duration of this signal is directly correlated to the stability of the peptide-MHC class I-β2m complex under dissociating conditions and in the presence of excess unlabeled β2m (Harndahl et al., [2011]). Peptides with a half-life ≥ 0.5 h were selected as stable binders.

[2] = system: PBMCs; test: In vitro peptide stimulation of porcine PBMCs, IFN-γ release assay (ELISA); type: cell-based, pig; set-up: key to T cell response: “x” indicates that a response was found to this given peptide at least once; settings: for T cell response: PBMCs of immunized pigs, 2 × 10^5/well, 5 μg/ml peptide, 67.5–70.0 h, IFN-γ ELISA, response = 2-fold increase vs day -2 and at least 25 pg/ml IFN-γ, found at least once, SLA restriction not included
[3] = system: SLA-3*04:01; test: Peptide-MHC class I complex stability, scintillation proximity assay (SPA); set-up: species or system pig; settings: biotinylated recombinant SLA heavy chain, 125I-β2m, excess unlabeled β2m, read every 40 min, number only if t1/2 ≥ 0.5 h, '-' = not stably binding
Description: as §1

Substance | Binder (t1/2 ≥ 0.5 h): half-life of peptide-SLA-2*04:01 complex [1] | Binder (t1/2 ≥ 0.5 h): half-life of peptide-SLA-3*04:01 complex [3] | further results
AGFLQEMRTY [IDO1, porcine IDO-derived 9-11mer peptide] | 0.6 h | – | T cell response [2]: x
ANRISAFGYL [RhoC3, porcine RhoC-derived 9-11mer peptide] | – | - (t1/2 (hours) is listed for each of the stably binding peptides (t1/2 ≥ 0.5 h)) | –
ANRISAFGYLE [RhoC4, porcine RhoC-derived 9-11mer peptide] | – | - (t1/2 (hours) is listed for each of the stably binding peptides (t1/2 ≥ 0.5 h)) | –
ANWKKKDPS [IDO6, porcine IDO-derived 9-11mer peptide] | – | - (t1/2 (hours) is listed for each of the stably binding peptides (t1/2 ≥ 0.5 h)) | –
DNSWKIFEEY [IDO11, porcine IDO-derived 9-11mer peptide] | - (t1/2 (hours) is listed for each of the stably binding peptides (t1/2 ≥ 0.5 h)) | – | –
DSLENIPEKW [RhoC9, porcine RhoC-derived 9-11mer peptide] | - (t1/2 (hours) is listed for each of the stably binding peptides (t1/2 ≥ 0.5 h)) | – | –
DWWSPMDNSW [IDO13, porcine IDO-derived 9-11mer peptide] | - (t1/2 (hours) is listed for each of the stably binding peptides (t1/2 ≥ 0.5 h)) | – | –
EKLGLPPILVY [IDO17, porcine IDO-derived 9-11mer peptide] | - (t1/2 (hours) is listed for each of the stably binding peptides (t1/2 ≥ 0.5 h)) | – | –
ENYIADIEVD [RhoC19, porcine RhoC-derived 9-11mer peptide] | - (t1/2 (hours) is listed for each of the stably binding peptides (t1/2 ≥ 0.5 h)) | – | –
FALPNPLEEL [IDO22, porcine IDO-derived 9-11mer peptide] | 0.5 h | – | T cell response [2]: x
FNAIQCEDL [IDO26, porcine IDO-derived 9-11mer peptide] | 0.6 h | – | T cell response [2]: x
FNVLRIYLS [IDO27, porcine IDO-derived 9-11mer peptide] | – | - (t1/2 (hours) is listed for each of the stably binding peptides (t1/2 ≥ 0.5 h)) | –
FNVLRIYLSG [IDO28, porcine IDO-derived 9-11mer peptide] | – | - (t1/2 (hours) is listed for each of the stably binding peptides (t1/2 ≥ 0.5 h)) | –
FNVLRIYLSGW [IDO29, porcine IDO-derived 9-11mer peptide] | 33.6 h | – | T cell response [2]: x
FSKDQFPEVY [RhoC26, porcine RhoC-derived 9-11mer peptide] | - (t1/2 (hours) is listed for each of the stably binding peptides (t1/2 ≥ 0.5 h)) | – | –
HKMQRLAHLVL [IDO37, porcine IDO-derived 9-11mer peptide] | – | - (t1/2 (hours) is listed for each of the stably binding peptides (t1/2 ≥ 0.5 h)) | –
KALLDITSSL [IDO46, porcine IDO-derived 9-11mer peptide] | – | - (t1/2 (hours) is listed for each of the stably binding peptides (t1/2 ≥ 0.5 h)) | –
KDPSGPMTY [IDO47, porcine IDO-derived 9-11mer peptide] | – | - (t1/2 (hours) is listed for each of the stably binding peptides (t1/2 ≥ 0.5 h)) | –

Substance | Binder (t1/2 ≥ 0.5 h): half-life of peptide-SLA-2*04:01 complex [1] | Binder (t1/2 ≥ 0.5 h): half-life of peptide-SLA-3*04:01 complex [3] | further results
KEGVREVFEM [RhoC27, porcine RhoC-derived 9-11mer peptide] | – | - (t1/2 (hours) is listed for each of the stably binding peptides (t1/2 ≥ 0.5 h)) | –
KGFFLVSLLV [IDO50, porcine IDO-derived 9-11mer peptide] | – | - (t1/2 (hours) is listed for each of the stably binding peptides (t1/2 ≥ 0.5 h)) | –
KHFCPNVPI [RhoC28, porcine RhoC-derived 9-11mer peptide] | – | - (t1/2 (hours) is listed for each of the stably binding peptides (t1/2 ≥ 0.5 h)) | –
KHFCPNVPII [RhoC29, porcine RhoC-derived 9-11mer peptide] | – | - (t1/2 (hours) is listed for each of the stably binding peptides (t1/2 ≥ 0.5 h)) | –
LDWWSPMDNSW [IDO64, porcine IDO-derived 9-11mer peptide] | - (t1/2 (hours) is listed for each of the stably binding peptides (t1/2 ≥ 0.5 h)) | – | –
LGYITMAYVW [IDO66, porcine IDO-derived 9-11mer peptide] | 4.9 h | – | T cell response [2]: x
LSEGLLYEGVW [IDO71, porcine IDO-derived 9-11mer peptide] | 4.4 h | – | T cell response [2]: x
LVYADCVLANW [IDO74, porcine IDO-derived 9-11mer peptide] | - (t1/2 (hours) is listed for each of the stably binding peptides (t1/2 ≥ 0.5 h)) | – | –
MDNSWKIFEEY [IDO76, porcine IDO-derived 9-11mer peptide] | 1.9 h | – | T cell response [2]: x
NSWKIFEEYH [IDO90, porcine IDO-derived 9-11mer peptide] | - (t1/2 (hours) is listed for each of the stably binding peptides (t1/2 ≥ 0.5 h)) | – | –
NYHLQIVTKY [IDO93, porcine IDO-derived 9-11mer peptide] | - (t1/2 (hours) is listed for each of the stably binding peptides (t1/2 ≥ 0.5 h)) | – | –
SSLHKALEVF [IDO121, porcine IDO-derived 9-11mer peptide] | - (t1/2 (hours) is listed for each of the stably binding peptides (t1/2 ≥ 0.5 h)) | – | –
Staphylococcal Enterotoxin B [SEB, reference compound] | – | – | IFN-γ in positive control cultures [2]: > 70 pg/mL
TYMPPAHRNF [IDO124, porcine IDO-derived 9-11mer peptide] | 4.7 h | – | T cell response [2]: x
VDGKQVELALW [RhoC52, porcine RhoC-derived 9-11mer peptide] | 0.5 h | – | T cell response [2]: x
VFSKDQFPEVY [RhoC53, porcine RhoC-derived 9-11mer peptide] | - (t1/2 (hours) is listed for each of the stably binding peptides (t1/2 ≥ 0.5 h)) | – | –
WDTAGQEDY [RhoC55, porcine RhoC-derived 9-11mer peptide] | - (t1/2 (hours) is listed for each of the stably binding peptides (t1/2 ≥ 0.5 h)) | – | –
WWSPMDNSW [IDO132, porcine IDO-derived 9-11mer peptide] | - (t1/2 (hours) is listed for each of the stably binding peptides (t1/2 ≥ 0.5 h)) | – | –
